Assay results: patent publication US20140341916A1, “THERAPEUTIC COMBINATIONS AND METHODS OF TREATING MELANOMA” (Genentech, Inc., priority 2011, published 2014)

Test system: ETBR transcript
Test: ETBR transcript level in melanoma cell lines, Taqman, normalized to RPL19
Type: cell-based, human
Conditions: 24 h
Method: Melanoma cell lines UACC-257X2.2, A2058, COLO 829, IPC-298 (ATCC) were treated with a BRAF inhibitor drug (“BRAFi”), specifically RG7204 at varying concentrations by adding the appropriate drug volume to cells in culture for 24 h on four-well dishes.
(§1) To determine the effect of BRAFi on ETBR and control ribosomal protein L19 (RPL19) transcript levels, the following experiments were performed. Cells treated with RG7204 for 24 h were harvested from plates by scraping and processed for total RNA using Qiashredder and RNeasy mini kits (79654, 74104 from Qiagen, Valencia, Calif.). Taqman assays were set up using reagents from Applied Biosystems (ABI, Foster City, Calif.) and assayed using 7500 Real Time PCR machine and software from ABI. Primer-probe sets were designed with primers flanking a fluorogenic probe dual labeled with Reporter dye FAM and quencher dye TAMRA.
Melanoma cell lines A2058, COLO 829, SK23-MEL and IPC-298 (ATCC) were treated with a MEK inhibitor drug (“MEKi-973” or “MEKi-623”), at varying concentrations (0 μM, 0.01 μM, 0.1 μM or 1 μM) by adding the appropriate drug volume to cells in culture for 24 h on four-well dishes.
as §1, with “MEKi” for “BRAFi”, “ETBR” for “ETBR and control ribosomal protein L19 (RPL19)”, “performed as described above in Example 3.” for “performed.”, “either MEKi-973” for “RG7204”

CCCS(=O)(=O)Nc1ccc(F)c(C(=O)c2c[nH]c3ncc(-c4ccc(Cl)cc4)cc23)c1F [RG7204, propane-1-sulfonic acid {3-[5-(4-chlorophenyl)-1H-pyrrolo[2,3-b]pyridine-3-carbonyl]-2,4-difluoro-phenyl}-amide]
ETBR transcript vs untreated control cells (A2058 cells): appears to increase the ETBR transcripts | ETBR transcript vs untreated control cells (COLO 829 cells): appears to increase the ETBR transcripts | ETBR transcript vs untreated control cells (UACC-257X2.2 cells): appears to increase the ETBR transcripts
